What was measured:
[1] = tested on: filaggrin production in human skin keratinocytes (NHEK); assay: Filaggrin production test (A): fluorescent immunostaining with Anti-FLG; format: cell-based; conditions: for Increase rate of brightness: overnight, relative to Lcell of Comparative Test Example 2 (no calcium salt added = 100); for Brightness/Cell number (Lcell): incubated overnight
Protocol: Various calcium salts were dispersed in water so that the concentration calculated in terms of calcium ion would be 0.89 M, this obtained dispersed solution was then sterilized in an autoclave (at 120° C. for 20 minutes), and thereby various calcium salt stock dispersed solutions were prepared.
Then, according to Table 11, each calcium salt stock aqueous dispersed solution was added to a medium (manufactured by KURABO […] LTD., HuMedia-KG2) while pipetting so that that a predetermined supplemented concentration calculated in terms of calcium ion would be obtained, and thereby a calcium salt supplemented medium was prepared.
On a culture plate of 24-wells to which the same medium as used in the preparation of the above-mentioned calcium salt supplemented medium was added, human skin keratinocytes (manufactured by KURABO […] LTD., NHEK) were inoculated so that the cell density would be 3,800 cells/cm^2, and this was cultured for 3 days (37° C., 5% CO2). Then, this medium was exchanged with the calcium salt supplemented medium prepared as mentioned above and incubated for overnight (37° C., 5% CO2).
Whether filaggrin is produced by a calcium salt was examined using fluorescent immunostaining methods by Anti-Filaggrin/FLG, Rabbit-Poly, Alexa Fluor 488 (manufactured by BIS, hereinafter referred to as “Anti-FLG” as well). Moreover, for comparing the staining, DAPI (4′,6-diamidino-2-phenylindole dihydrochloride, manufactured by Wako Pure Chemical Industries, Ltd) was used to stain the nucleus.
That is to say that the above-mentioned incubated cells for overnight were washed with PBS and fixed with 4% paraformaldehyde solution (manufactured by Wako Pure Chemical Industries, Ltd). The fixed cells were permeabilized with 0.1% Triton-X 100, incubated for overnight with Anti-FLG PBS solution (×50) at 4° C., and then stained with a PBS solution of 100 nM DAPI. Note that the cells were washed with PBS after every operation.
For calculating the relative production amount of filaggrin, a fluorescent microscopic image of the above-mentioned stained cells was taken. The brightness of the image was quantified using Photoshop CS3, and this was normalized by dividing the obtained numerical value with cell numbers (Brightness/Cell number; Lcell). Moreover, the increase rate of brightness by adding various calcium salts in comparison with Lcell of the Comparative Test Example 2 in which calcium salt aqueous dispersed solution has not been added to the medium was calculated.

[2] = tested on: filaggrin production in human skin keratinocytes (NHEK); assay: Filaggrin production test (B): calcium salt composition, fluorescent immunostaining; format: cell-based; conditions: for Increase rate of brightness: unsupplemented = 100
Protocol: Then, according to Table 12, the calcium salt stock aqueous dispersed solution was added to the same medium as used in filaggrin production test (A) while pipetting so that a predetermined supplemented concentration calculated in terms of calcium ion would be obtained, and thereby a calcium salt supplemented medium was prepared.
On a culture plate of 24-wells to which the same medium as used in filaggrin production test (A) was added, human skin keratinocytes (manufactured by KURABO […] LTD., NHEK) were inoculated so that the cell density would be 3,800 cells/cm^2, and this was cultured for 3 days (37° C., 5% CO2). Then, this medium was exchanged with the calcium salt supplemented medium prepared as mentioned above and incubated for a day or two (37° C., 5% CO2). These incubated cells were stained as in the above-mentioned filaggrin production test (A), and Lcell and the increase rate of brightness were calculated.

[3] = supplemented concentration calculated in terms of calcium ion 1.78 mM
[4] = calcium ion 0.09 mM, cells incubated for 1 day
[5] = calcium ion 0.09 mM, cells incubated for 2 days
[6] = calcium ion 0.89 mM, cells incubated for 1 day
[7] = calcium ion 0.89 mM, cells incubated for 2 days
[8] = supplemented concentration calculated in terms of calcium ion 0.89 mM

Row | Molecule | Increase rate of brightness ([1]; calcium ion 1.78 mM) [%] | Brightness/Cell number (Lcell) [1, 3] | Brightness/Cell number (Lcell) [2, 4] | Increase rate of brightness [2, 4] [%] | Brightness/Cell number (Lcell) [2, 5] | Increase rate of brightness [2, 5] [%] | Brightness/Cell number (Lcell) [2, 6] | Increase rate of brightness [2, 6] [%] | Brightness/Cell number (Lcell) [2, 7] | Increase rate of brightness [2, 7] [%] | Increase rate of brightness ([1]; calcium ion 0.89 mM) [%] | Brightness/Cell number (Lcell) [1, 8] | Filaggrin production compared to calcium chloride ([1]; human skin keratinocytes, Table 11)
1 | [Ca+2].[Cl-].[Cl-] [Calcium chloride] | 130 | 0.12 | 0.20 | 83 | 0.16 | 89 | 0.23 | 96 | 0.20 | 110 |  |  | 
2 | O=P([O-])(O)O.O=P([O-])(O)O.[Ca+2] [Calcium dihydrogen phosphate] |  |  |  |  |  |  |  |  |  |  | 180 | 0.17 | 
3 | O=P([O-])([O-])OP(=O)([O-])[O-].[Ca+2].[Ca+2] [Calcium pyrophosphate] | 260 | 0.25 |  |  |  |  |  |  |  |  | 290 | 0.28 | relatively high filaggrin production as compared to that of calcium chloride
4 | Calcium glycerophosphate | 200 | 0.19 |  |  |  |  |  |  |  |  |  |  | 
